The species entered for one data set is Homo sapiens. Put plainly: In vitro inhibition of LTB4 production in human blood. Format: functional.
The next data set relates to Rattus norvegicus. Kind of data set: Compound was evaluated ex vivo for inhibition of LTB4 production in rat air pouch inflammatory exudate at 3 hr after peroral administration. The class given is functional. To be noted: po.
Data set [1] can be described thus: Aqueous solubility was determined. The class given is physicochemical.

SMILES strings stand for the structures. pIC50: −log10 of the molar value. ≈ marks a conversion by molar mass, not a printed value.

The pIC50 is −log10 of the IC50, conventionally taken in molar units. A low value points to a large IC50. As a reminder, the ED50 is the midpoint of the dose-response relation. As for `COC1(/C(C)=C/C(=O)OCc2ccc3c(ccc(=O)n3C)c2)CCOCC1`, the pIC50 in the data set filed under Homo sapiens was 5.68. For the same compound, the ED50 with Rattus norvegicus is more than 5 mg/kg.
`COC1(C(=O)CC(=O)OCc2ccc3c(ccc(=O)n3C)c2)CCOCC1` had a pIC50 in the data set listed under Homo sapiens of less than 5.00. In the data set with Rattus norvegicus, this compound gave an ED50 of more than 5 mg/kg.
The solubility is the concentration that dissolves in the medium under given conditions. Read a high solubility as a readily soluble substance. In data set [1], `COC1(C(=N)/C=C(\O)OCc2ccc3ccccc3c2)CCOCC1` yielded a solubility of 50 µM (≈ 17.1 µg/mL). For the same compound, the pIC50 in the data set listed under Homo sapiens was 7.15. In the data set on Rattus norvegicus, this compound displayed an ED50 of more than 5 mg/kg.
`COC1(/C=C/COCc2ccc3c(ccc(=O)n3C)c2)CCOCC1`: the pIC50 in the data set filed under Homo sapiens is 6.30. Besides, the ED50 in the data set on Rattus norvegicus was more than 5 mg/kg.
For `COC1(/C=C/C(=O)OCc2ccc3c(ccc(=O)n3C)c2)CCOCC1` the same measures were 5.77 and more than 5 mg/kg.
The compound `COC1(C(=N)/C=C(\O)OCc2ccc3c(ccc(=O)n3C)c2)CCOCC1` registered a solubility in data set [1] of 150 µM (≈ 55.9 µg/mL). Besides, in the data set filed under Homo sapiens, the pIC50 is 7.40. For the same compound, in the data set with Rattus norvegicus, the ED50 worked out at 3 mg/kg.
Compound `COC1(C(=N)/C=C(\O)OCc2ccc3c(c2)OCC(=O)N3C)CCOCC1` yielded a solubility in data set [1] of 25 µM (≈ 9.41 µg/mL). This compound had a pIC50 in the data set filed under Homo sapiens of 7.22. In the data set on Rattus norvegicus, this compound showed an ED50 of 5 mg/kg.
In turn, `CO/C(=C\C(=O)OCc1ccc2c(ccc(=O)n2C)c1)C1(OC)CCOCC1` showed a pIC50 in the data set filed under Homo sapiens of 5.59. The same compound had an ED50 in the data set on Rattus norvegicus of more than 5 mg/kg.
For `COC1(c2cc(F)cc(OCc3ccc4c(ccc(=O)n4C)c3)c2)CCOCC1` [ZD-2138], the solubility in data set [1] amounted to 3.8 µM (≈ 1.51 µg/mL). This compound displayed an ED50 in the data set with Rattus norvegicus of 0.3 mg/kg.
